# Data from publication PMC11510191, “Exploring Benzo[h]chromene Derivatives as Agents against Protozoal and Mycobacterial Infections” (Pharmaceuticals, 2024).
# pIC50: −log10 of the molar value. Read-outs that look alike come from different tables or passages of the source.
# What was measured:
# [1] = tested on: T. cruzi epimastigotes; assay: Trypanocidal activity on T. cruzi epimastigotes (CL-B5 lacZ, CPRG); assay type: cell-based, Trypanosoma cruzi clone CL-B5; conditions: for pIC50: Trypanosoma cruzi, 72 h, epimastigotes, read-out: Trypanocidal Activity IC50 T. cruzi
# Description: For in vitro studies of T. cruzi. the clone CL-B5 was used. Parasites were stably transfected with the Escherichia coli β-galactosidase gene (lacZ), provided by Facultad de Farmacia (Universidad Complutense de Madrid). Epimastigotes were grown at 28 °C in liver infusion tryptose broth (Difco, Detroit, MI, USA) with 10% fetal bovine serum (FBS) (Gibco, Carlsbad, CA, USA), penicillin (Ern S.A., Barcelona, Spain), and streptomycin (Reig Jofré S.A., Barcelona. Spain), as described previously, and harvested during the exponential growth phase. Briefly, the screening assay was performed in 96-well microplates (Sarstedt, Inc., Newton, NC, USA) with cultures that had not reached the stationary phase. Briefly, epimastigotes were seeded at 2 × 10^5 parasites/mL in 200 µL growth media. The plates were then incubated with the respective compounds at 28 °C for 72 h. Afterwards, 50 µL of CPRG solution was added, resulting in a final concentration of 200 µM. The plates were incubated at 37 °C for an additional 4 h and then read at 595 nm. Each concentration was tested in triplicate. […] These values were calculated from the sigmoidal dose–response curve adjustment using the statistical software program Graph-Pad Prims 3.0. Benznidazole was used as a reference drug.
# [2] = Cytotoxicity on L929 fibroblasts (resazurin); conditions: mouse
# [3] = tested on: Leishmania infantum (L. i) promastigotes; assay: Leishmanicidal activity on L. infantum promastigotes (resazurin); conditions: Leishmania infantum, 48 h, read-out: Leishmanicidal Activity IC50—L. i
# Description: (§1) The culture of L. braziliensis (MHOM/CO/88/UA301) and L. infantum (MCAN/ES/92/BCN83) was obtained from the Facultad de Farmacia, Universidad Complutense de Madrid, Spain.
# (§2) The maintenance of the strains, the form of cultivation, and the isolation of shape promastigota followed the procedures described by Roldós et al. [8]. The promastigotes were grown at 22 °C in Schneider’s Drosophila medium supplemented with 20% FBS. The assay was performed using a modification of a previous method [47]. Promastigotes (2 × 10^6 parasites/well) were cultured in 96-well plastic plates. Compounds were dissolved in dimethylsulfoxide (DMSO). Different dilutions of the compounds up to a 200 µL final volume were added. After 48 h at 26 °C, 20 µL of 2 mM resazurin solution was added and the oxidation–reduction was quantified at 570 and 600 nm. The solution of resazurin was prepared at 2.5 mM in phosphate-buffered solution (PBS), pH 7.4, and filtered through 0.22 µM prior to use. All tests were carried out in triplicate. Resazurin sodium salt was obtained from Sigma–Aldrich (St. Louis, MO, USA) and stored at 4 °C protected from light. The efficacy of each compound was estimated by calculating the IC50 values.
# [4] = tested on: Leishmania brazilensis (L. b) promastigotes; assay: Leishmanicidal activity on L. braziliensis promastigotes (resazurin); conditions: Leishmania, 48 h, read-out: Leishmanicidal Activity IC50—L. b
# Description: as §1, §2
# [5] = tested on: M. tuberculosis CIPTIR -D152; assay: MIC broth microdilution; assay type: cell-based; conditions: Mycobacterium tuberculosis
# [6] = tested on: M. tuberculosis CIPTIR-F296; assay: MIC broth microdilution; assay type: cell-based; conditions: Mycobacterium tuberculosis, CIPTIRF296
# [7] = tested on: M. tuberculosis ATCC H37Rv; assay: MIC broth microdilution; assay type: cell-based; conditions: Mycobacterium tuberculosis
# [8] = tested on: M. abscessus LIID-01; assay: MIC broth microdilution; assay type: cell-based; conditions: Mycobacteroides abscessus, LIID01, 72 h
# [9] = tested on: M. abscessus LIID-02; assay: MIC broth microdilution; assay type: cell-based; conditions: Mycobacteroides abscessus, LIID02, 72 h
# [10] = tested on: M. abscessus LIID-03; assay: MIC broth microdilution; assay type: cell-based; conditions: Mycobacteroides abscessus, LIID03, 72 h
# [11] = tested on: M. fortuitum LIID-01; assay: MIC broth microdilution; assay type: cell-based; conditions: Mycolicibacterium fortuitum, LIID01, 72 h
# [12] = tested on: M. intracellulare LIID-01; assay: MIC broth microdilution; assay type: cell-based; conditions: Mycobacterium intracellulare, LIID01
# [13] = tested on: M. intracellulare LIID-02; assay: MIC broth microdilution; assay type: cell-based; conditions: Mycobacterium intracellulare, LIID02
# [14] = tested on: E. coli (G−); assay: MIC broth microdilution; assay type: cell-based; conditions: Escherichia coli, 24 h
# [15] = tested on: P. aeruginosa (G−); assay: MIC broth microdilution; assay type: cell-based; conditions: Pseudomonas aeruginosa, 24 h
# [16] = tested on: S. typhi (G−); assay: MIC broth microdilution; assay type: cell-based; conditions: Salmonella enterica, 24 h
# [17] = tested on: S. aureus (G+); assay: MIC broth microdilution; assay type: cell-based; conditions: Staphylococcus aureus, 24 h
# [18] = tested on: L. innocua (G+); assay: MIC broth microdilution; assay type: cell-based; conditions: Listeria innocua, 24 h
# [19] = tested on: L. monocytogenes (G+); assay: MIC broth microdilution; assay type: cell-based; conditions: Listeria monocytogenes, 24 h
# [20] = tested on: E. faecalis (G+); assay: MIC broth microdilution; assay type: cell-based; conditions: Enterococcus faecalis, 24 h
# [21] = tested on: B. cereus (G+); assay: MIC broth microdilution; assay type: cell-based; conditions: Bacillus cereus, 24 h
# [22] = tested on: M. luteus (G+); assay: MIC broth microdilution; assay type: cell-based; conditions: Micrococcus luteus, 24 h
smiles,measurement,setting,value
CC1(C)C=Cc2c(OC(=O)CCCc3cn(-c4ccccc4)nn3)c(OC(=O)CCCc3cn(-c4ccccc4)nn3)c3ccccc3c2O1 [Compound 3a],pIC50,[1],< 3.59
same,CC50 at 24 h,[2],> 256 µM
same,pIC50,[3],< 3.59
same,pIC50,[4],< 3.59
COc1ccc(-n2cc(CCCC(=O)Oc3c4c(c5ccccc5c3OC(=O)CCCc3cn(-c5ccc(OC)cc5)nn3)OC(C)(C)C=C4)nn2)cc1 [Compound 3b],pIC50,[1],< 3.59
same,CC50 at 24 h,[2],> 256 µM
same,pIC50,[3],< 3.59
same,pIC50,[4],< 3.59
CC1(C)C=Cc2c(OC(=O)CCCc3cn(-c4ccc(Cl)cc4)nn3)c(OC(=O)CCCc3cn(-c4ccc(Cl)cc4)nn3)c3ccccc3c2O1 [Compound 3c],pIC50,[1],< 3.59
same,CC50 at 24 h,[2],> 256 µM
same,pIC50,[3],< 3.59
same,pIC50,[4],< 3.59
Cc1ccc(-n2cc(CCCC(=O)Oc3c4c(c5ccccc5c3OC(=O)CCCc3cn(-c5ccc(C)cc5)nn3)OC(C)(C)C=C4)nn2)cc1 [Compound 3d],pIC50,[1],< 3.59
same,CC50 at 24 h,[2],> 256 µM
same,pIC50,[3],< 3.59
same,pIC50,[4],< 3.59
CC(=O)O[C@@H]1[C@@H](OC(C)=O)[C@H](OC(C)=O)CO[C@H]1n1cc(CCCC(=O)Oc2c3c(c4ccccc4c2OC(=O)CCCc2cn([C@@H]4OC[C@@H](OC(C)=O)[C@H](OC(C)=O)[C@H]4OC(C)=O)nn2)OC(C)(C)C=C3)nn1 [Compound 3e],pIC50,[1],< 3.59
same,MIC,[5],> 200 µg/mL
same,MIC,[6],> 200 µg/mL
same,MIC,[7]; H37RV,> 200 µg/mL
same,MIC,[8],> 200 µg/mL
same,MIC,[9],> 200 µg/mL
same,MIC,[10],> 200 µg/mL
same,MIC,[11],> 200 µg/mL
same,MIC,[12],50 µg/mL
same,MIC,[13],> 200 µg/mL
same,MIC,[14],> 200 µg/mL
same,MIC,[15],> 200 µg/mL
same,MIC,[16],100 µg/mL
same,MIC,[17],> 200 µg/mL
same,MIC,[18],> 200 µg/mL
same,MIC,[19],> 200 µg/mL
same,MIC,[20],> 200 µg/mL
same,MIC,[21],> 200 µg/mL
same,MIC,[22],> 200 µg/mL
same,CC50 at 24 h,[2],> 256 µM
same,pIC50,[3],< 3.59
same,pIC50,[4],< 3.59
CC1(C)C=Cc2c(OC(=O)CCCc3cn(-c4cccc(Cl)c4)nn3)c(OC(=O)CCCc3cn(-c4cccc(Cl)c4)nn3)c3ccccc3c2O1 [Compound 3g],Selectivity Index L929/ T. cruzi,[1]; SI = CC50 L929/IC50 parasites,>3
same,pIC50,[1],3.83
same,CC50 at 24 h,[2],> 384 µM
same,pIC50,[3],< 3.59
same,pIC50,[4],< 3.59
CC1(C)C=Cc2c(OC(=O)CCCc3cn(Cc4ccc(Br)cc4)nn3)c(OC(=O)CCCc3cn(Cc4ccc(Br)cc4)nn3)c3ccccc3c2O1 [Compound 3i],pIC50,[1],< 3.59
same,CC50 at 24 h,[2],> 256 µM
same,pIC50,[3],< 3.59
same,pIC50,[4],< 3.59
"CNC(C)C1CCC(N)C(OC2C(N)CC(N)C(OC3OCC(C)(O)C(NC)C3O)C2O)O1 (centres unmarked) [Gentamicin, reference compound]",MIC,[14],0.2 µg/mL
same,MIC,[15],0.78 µg/mL
same,MIC,[16],0.1 µg/mL
same,MIC,[17],0.1 µg/mL
same,MIC,[18],1.56 µg/mL
same,MIC,[19],0.2 µg/mL
same,MIC,[20],0.78 µg/mL
same,MIC,[21],0.78 µg/mL
same,MIC,[22],0.78 µg/mL
"C[C@@H](O)[C@H]1C(=O)N2C(C(=O)O)=C(SCCN=CN)C[C@H]12 [Imipenem, reference compound]",MIC,[8],32 µg/mL
same,MIC,[9],32 µg/mL
same,MIC,[10],8 µg/mL
same,MIC,[11],4 µg/mL
same,MIC,[12],1 µg/mL
same,MIC,[13],> 64 µg/mL
"CC(=O)NC[C@H]1CN(c2ccc(N3CCOCC3)c(F)c2)C(=O)O1 [Linezolid, reference compound]",MIC,[8],1 µg/mL
same,MIC,[9],1 µg/mL
same,MIC,[10],1 µg/mL
same,MIC,[11],8 µg/mL
same,MIC,[12],2 µg/mL
same,MIC,[13],8 µg/mL
"CO[C@H]1/C=C/O[C@@]2(C)Oc3c(C)c(O)c4c(O)c(c(/C=N/N5CCN(C)CC5)c(O)c4c3C2=O)NC(=O)/C(C)=C\C=C\[C@H](C)[C@H](O)[C@@H](C)[C@@H](O)[C@@H](C)[C@H](OC(C)=O)[C@@H]1C [Rifampicin, reference compound]",MIC,"[5]; M. tuberculosis CIPTIR -D152, read-out: MIC",32 µg/mL
same,MIC,"[6]; M. tuberculosis CIPTIR-F296, read-out: MIC",1 µg/mL
same,MIC,"[7]; M. tuberculosis ATCC H37Rv, read-out: MIC",2 µg/mL
